# Assay results reported in patent US20090274739A1, “METHODS AND COMPOSITIONS FOR TREATING NEOINTIMAL HYPERPLASIA” (THE TRUSTEES OF COLUMBIA UNIVERSITY IN THE CITY OF NEW YORK, priority 2006, published 2009).
# Values joined by “and” are separate entries in the source; they are usually repeats but may differ in a detail not shown here. Equal values may be shown once. “Also recorded” adds a separate entry of the source.
# How the values were obtained:
# [1] = system: primary murine aortic vascular smooth muscle cells (VSMC); test: VSMC proliferation assay (Coulter counter / MTS-based); type: cell-based, mouse
# Protocol: The methods used in the above experiments were as follows: Cell Culture and VSMC Proliferation Assays. Primary VSMC were isolated from aortic explants of wildtype, ob/ob, or db/db mice in the method of Roque et al. 30. VSMC were routinely cultured in Dulbecco's Modified Eagle's Medium (DMEM) containing either 4500 or 1250 mg/L glucose supplemented with 20% FBS at 37° C. in a 5% CO2 incubator. […] Cells were plated at 200,000 cells/ well of a 6 well dish and subsequently serum starved for 72 hr in DMEM media supplemented with 0.1 % FBS. Leptin dissolved in PBS was added directly to serum-free media at concentrations of 1, 10, or 100 ng/ml with […] LY294002 or U0126, and cells were grown for another 72 hr before harvesting. VSMC proliferation was measured by counting samples using a Coulter counter or using the Cell Titre 96 Aqueous One Solution Cell Proliferation Assay kit (Promega). Cell viability was assessed by Trypan Blue staining.
# Proliferation of VSMCs: VSMC proliferation was measured by counting triplicate samples using a Coulter counter or using the CellTitier 96 Aqueous One Solution Cell Proliferation Assay (Promega, Madison, Wis.) kit per manufacturer's instructions. Cell viability was assessed via staining with Trypan Blue.
# Murine VSMCs (2×10^4 cells/well) were incubated in a 6-well tissue culture plate for 72 hours in DMEM containing 0.1% FBS with or without insulin (10 or 100 nmol/L) and with 0, 1, 10, or 100 nmol/L rapamycin. Triplicate samples were counted using a Coulter counter and were normalized as percentage of the control group. Cell viability was checked via Trypan blue staining.
# Murine VSMCs, seeded 2×10^4 cells/well in a 6-well plate, were starved for 72 hrs in DMEM with 0.1% FBS. Rapamycin, leptin, or insulin in different concentrations indicated in the figure were incubated with VSMCs in DMEM with 0.1% of FBS for 72 hrs. Triplicate samples were counted via a Coulter counter. Cell viability was checked via Trypan blue staining. […] In panel C, VSMCs were exposed to U0126, a specific MEK1/2 inhibitor, or LY294002, a specific PI3K inhibitor.
# Primary VSMC were isolated from aortic explants of WT, ob/ob, or db/db mice (46). VSMC proliferation was determined using the Cell Titre Aqueous One Solution Proliferation Assay (Promega, Madison, Wis.). Migration to PDGF-BB was assessed in a modified Boyden chamber assay (47).
# [2] = system: MAPK (p44/p42, ERK1/2) phosphorylation; test: Immunoblot of MAPK (ERK1/2, p44/p42) phosphorylation in VSMC; type: cell-based, mouse
# Protocol: (§1) Western blot analysis: The cells were plated in a 100-mm culture dish in DMEM supplemented with 20% FBS for 24 h at 37° C., followed by serum starvation for 48 h. Cells were then treated with different reagents for 30 min. Cells were subsequently lysed on ice for 30 min in RIPA buffer [150 mM NaCl, 100 mM Tris (pH 8.0), 1% Triton X-100, 1% deoxycholic acid, 0.1% SDS, 5 mM EDTA, and 10 mM NaF] supplemented with 1 mM sodium vanadate, 2 mM leupeptin, 2 mM aprotinin, 1 mM phenylmethylsulfonyl fluoride (PMSF), 1 mM DTT, and 2 mM pepstatin A. After centrifugation at 14,000 rpm for 30 min, the supernatant was harvested as the total cellular protein extract, and stored at −70° C. The protein concentration was determined using Bio-Rad protein assay reagent (Richmond, Calif.). The total cellular protein extracts were separated by SDS-polyacrylamide gel electrophoresis (SDS-PAGE) and transferred to nitrocellulose membrane in 20 mM Tris-HCl (pH 8.0) containing 150 mM glycine and 20% (v/v) methanol.
# (§2) Membranes were blocked with 5% nonfat dried milk in PBS containing 0.05% Tween 20 and incubated with antibodies against phospho-(Thr^202/Tyr^204) p42/p44^MAPK and p42/p44^MAPK, phospho-Akt([…]) and anti-Akt, p70^S6K, 4EBP-1. Blots were washed three times in PBS buffer, followed by incubation with the appropriate HRP-linked IgG. The specific proteins in the blots were visualized using an enhanced chemiluminescence reagent (NEN, Boston, Mass.).
# (§3) VSMC were plated on 100-mm dishes, serum starved for 72 h in DMEM containing 0.1% FBS, and stimulated with 0.6 or 6 nM (10 or 100 ng/ml) leptin. Extracts were prepared by brief sonication in HKM buffer [40 mM HEPES-KOH (pH 7.6), 7.5 mM MgCl2, 0.5 mM DTT] or, in the case of Akt phosphorylation studies, by lysing cells on ice for 30 min in RIPA buffer. 70 μg of protein per sample were subjected to immunoblotting by standards protocols. Imaging and densitometry were performed on an Odyssey infrared system (Li-Cor, Lincoln, Neb.).
# Akt phosphorylation = test: Immunoblot of Akt phosphorylation in VSMC; type: cell-based, mouse; settings: Example 2; rapamycin; leptin 100 ng/ml
# Protocol: as §1, §2, §3
# [3] = system: murine femoral artery wire injury model (neointimal hyperplasia); test: Femoral artery wire injury model, morphometry of neointimal formation; type: in vivo, mouse; set-up: Lumen / Media / Intima / TVA (total vessel area): unit not given here; settings: for decrease of neointimal formation compared to vehicle: absence of leptin; for I/M (intima:media ratio) / Intima / Lumen / Media / TVA (total vessel area): mean ± SD
# Excerpt: Animal Models and Drug Treatments. Wild type C57BL/6J background mice and mice deficient for leptin (C57BL/6J-Lepob; ob/ob) or the leptin receptor (C57BL/6J-m+/+Lepdb; db/db) were purchased from Charles Jackson Laboratories, Maine. Mice were obtained at ages 6-8 weeks old and average weight 15 g. Animals were fed standard rodent chow and tap water ad libitum. Procedures and animal care were approved by the Institutional Animal Care and Use Committee. Mice were subjected to femoral artery wire injury or sham injury described below 24 hr prior to starting pharmacological treatments. Sirolimus was administered by intraperitoneal injection once per day for 14 days as a suspension in 0.2% sodium carboxymethyl cellulose and 0.25% polysorbate-80; duplicate experiments were accomplished with 0.5% DMSO. Leptin or LY294002 was administered by intraperitoneal injection once per day for 14 days as a suspension in PBS. Plasma leptin levels were measured at baseline, 3, 6, and 10 hr after leptin injection using an ELISA assay (R&D). Leptin plus the vehicle used for both sirolimus and LY294002 was used as the control group for the treatment groups with sirolimus and LY294002. After the 2-week treatment, animals were processed for femoral artery morphometry.
# Femoral Artery Injury Model. Endoluminal injury of bilateral femoral arteries was performed according to the method of Roque et al. with minor modification 27. […] Briefly, to denude and dilate femoral arteries, a 0.014″ angioplasty guidewire (Guidant) was passed endoluminally 3 times to the level of the aortic bifurcation. A sham protocol was performed where the arteries underwent dissection, clamping, and ligature without passage of the guidewire.
# Computer-aided quantitative morphometry to measure luminal, medial, intimal, and vessel areas were performed as previously described 27 with minor modification. Mice were euthanized via CO2 asphyxiation prior to en bloc excision of hind limbs. Briefly, multiple segments of the common femoral artery at the level of injury were fixed in 10% Zinc Formalin, embedded in paraffin, sectioned at […] thickness, and subjected to Elastic-Van Gieson staining at a Columbia University Core Histology facility. In many cases, arteries underwent immunohistochemical staining for smooth muscle a-actin to highlight the media and neointima. Photomicrographs were captured on Adobe Photoshop 7.0 and transferred to Scion Image software for quantitative analysis. Specimens were analyzed by two independent operators blinded to the treatment groups. Microsoft Excel software was used to calculate the RNI values from I/M ratios in the absence and presence of pharmacological inhibitors, as detailed in the text.
# Surgical Procedures: The mouse femoral artery wire injury model of was used with minor modifications (Roque M, et al., Arterioscler Thromb Vasc Biol, 2000, 20(2):335-42). Briefly, forty-two male mice were studied. Endoluminal injury to the common femoral artery was produced by either 3 passages of a 0.014″ diameter angioplasty guidewire (Guidant, Santa Clara, Calif.). […] While being viewed under a surgical microscope, a groin incision was made and the femoral artery was isolated and temporarily clamped distal to the inguinal ligament. An arteriotomy was performed and the guidewire was passed 3 times to the level of the aortic bifurcation. The artery was then ligated proximal to the arteriotomy. A sham protocol was carried out on the contralateral side where the arteries underwent dissection, temporary clamping, and ligature, without passage of the wire. The formation of the neointima was confirmed in this model as being comprised mainly of VSMCs through immunohistochemical staining of representative sections for α-smooth muscle actin via a commercial kit (Sigma).
# For all treatment protocols, rapamycin was administered by intraperitoneal injection once per day, for 14 days, as a suspension in 0.2% sodium carboxymethyl cellulose and 0.25% polysorbate-80. […]
# [4] = system: wire-injured femoral artery of hyperglycemic (STZ) mice; test: Femoral artery wire injury in streptozotocin-induced hyperglycemic mice; type: in vivo, mouse
# Protocol: For the studies carried out in hyperglycemic mice, animals received an intraperitoneal injection of 60 mg/kg/d for 5 days of streptozotocin (STZ) in 0.05 mol/L citrate buffer. Surgery was performed 3 days following the final injection. Blood glucose levels were measured prior to injury (representing baseline levels), at time of injury, at euthanasia, and as needed during insulin administration with the OneTouch SureStep® Blood glucose monitoring system (Lifescan, Inc., Milipitas, Calif.). Only animals with blood glucose concentrations >300 mg/dL were included in this study.
# Insulin (12-26 U/kg) was administered via an intraperitoneal route twice per day, for 14 days, according to blood glucose measurements.
# Morphometry: Mice were euthanized via CO2 asphyxiation and were perfused with 10% Zinc Formalin through the left ventricle at physiological pressure (100 mm Hg). Tissues were excised and fixed overnight in 10% Zinc Formalin, embedded in paraffin, and sectioned at 5 μm thickness. Multiple level sections were cut at 100 pm intervals. For morphometry, tissues were stained with elastic van Gieson stain. Using computer aided morphometry (Scion Image), luminal, medial, intimal, and vessel area, and the lengths of the internal and external elastic laminae were measured as previously described (Roque M, et al., Arterioscler Thromb Vasc Biol, 2000, 20(2):335-42) in a blinded manner. […]
# [5] = wire injury + leptin 0.4 mg/kg, SRL 1 mg/kg/d i.p. 14 days
# [6] = wire injury + leptin 0.4 mg/kg, SRL 4 mg/kg/d i.p. 14 days
# [7] = wire injury + leptin 0.4 mg/kg, SRL 9 mg/kg/d i.p. 14 days
# [8] = wire injury, SRL 1 mg/kg/d i.p. 14 days, no leptin
# [9] = wire injury, SRL 4 mg/kg/d i.p. 14 days, no leptin
# [10] = wire injury, SRL 9 mg/kg/d i.p. 14 days, no leptin
compound,measurement,setting,value
N#CC(=C(/N)Sc1ccccc1N)/C(C#N)=C(\N)Sc1ccccc1N [U0126],VSMC proliferation induced by leptin and insulin,[1],weak inhibition; also recorded: not inhibited
same,effect on leptin-induced VSMC proliferation,[1],did not significantly alter
same,effect on leptin-induced proliferation of murine VSMC,[1],did not significantly alter
same,leptin-stimulated phosphorylation of MAPK,"[2]; Example 1, data not shown",prevented
same,leptin-stimulated phosphorylation of MAPK,"[2]; Example 5, U0126 10 μM",prevented
"CO[C@H]1C[C@@H]2CC[C@@H](C)[C@@](O)(O2)C(=O)C(=O)N2CCCC[C@H]2C(=O)O[C@H]([C@H](C)C[C@@H]2CC[C@@H](O)[C@H](OC)C2)CC(=O)[C@H](C)/C=C(\C)[C@@H](O)[C@@H](OC)C(=O)[C@H](C)C[C@H](C)/C=C/C=C/C=C/1C [sirolimus, rapamycin]",inhibition of leptin-stimulated phosphorylation of Akt,Akt phosphorylation,did not inhibit
same,inhibition of leptin-stimulated phosphorylation of ERK1/2,"[2]; Example 2, rapamycin, leptin 100 ng/ml",did not inhibit
same,decrease of neointimal formation compared to vehicle,[3]; sirolimus 1 mg/kg/d,~2 fold
same,relative neointimal inhibition (RNI),"[3]; sirolimus 1 mg/kg/d, in the presence of leptin 0.4 mg/kg",0.35
same,relative neointimal inhibition (RNI),"[3]; sirolimus 1 mg/kg/d, without leptin, RNI 1 = total inhibition",0.51
same,decrease of neointimal formation compared to vehicle,[3]; sirolimus 4 mg/kg/d,~5 fold
same,relative neointimal inhibition (RNI),"[3]; sirolimus 4 mg/kg/d, in the presence of leptin 0.4 mg/kg",0.67
same,relative neointimal inhibition (RNI),"[3]; sirolimus 4 mg/kg/d, without leptin",0.81
same,decrease of neointimal formation compared to vehicle,[3]; sirolimus 9 mg/kg/d,~5 fold and ~6 fold
same,relative neointimal inhibition (RNI),"[3]; sirolimus 9 mg/kg/d, in the presence of leptin 0.4 mg/kg",0.97
same,relative neointimal inhibition (RNI),"[3]; sirolimus 9 mg/kg/d, without leptin",0.85
same,I/M (intima:media ratio),[3]; [5],1.269 ± 0.254
same,Intima,[3]; [5],0.024 ± 0.005
same,Lumen,[3]; [5],0.010 ± 0.002
same,Media,[3]; [5],0.019 ± 0.001
same,TVA (total vessel area),[3]; [5],0.056 ± 0.007
same,I/M (intima:media ratio),[3]; [6],0.654 ± 0.172
same,Intima,[3]; [6],0.009 ± 0.001
same,Lumen,[3]; [6],0.012 ± 0.004
same,Media,[3]; [6],0.015 ± 0.002
same,TVA (total vessel area),[3]; [6],0.035 ± 0.006
same,I/M (intima:media ratio),[3]; [7],0.061 ± 0.015
same,Intima,[3]; [7],0.001 ± 0.000
same,Lumen,[3]; [7],0.014 ± 0.002
same,Media,[3]; [7],0.017 ± 0.003
same,TVA (total vessel area),[3]; [7],0.031 ± 0.004
same,I/M (intima:media ratio),[3]; [8],0.334 ± 0.043
same,Intima,[3]; [8],0.005 ± 0.001
same,Lumen,[3]; [8],0.012 ± .003
same,Media,[3]; [8],0.014 ± 0.001
same,TVA (total vessel area),[3]; [8],0.029 ± 0.003
same,I/M (intima:media ratio),[3]; [9],0.121 ± 0.027
same,Intima,[3]; [9],0.001 ± 0.000
same,Lumen,[3]; [9],0.012 ± 0.005
same,Media,[3]; [9],0.015 ± 0.003
same,TVA (total vessel area),[3]; [9],0.028 ± 0.006
same,I/M (intima:media ratio),[3]; [10],0.094 ± 0.037
same,Intima,[3]; [10],0.001 ± 0.000
same,Lumen,[3]; [10],0.015 ± 0.002
same,Media,[3]; [10],0.015 ± 0.002
same,TVA (total vessel area),[3]; [10],0.030 ± 0.004
Insulin: insulin purchased from Calbiochem,blood glucose levels,"[4]; STZ mice, insulin 12-26 U/kg twice per day",reduce blood glucose levels to normal levels
same,intima:media ratio,"[4]; STZ+INS, insulin 12-26 U/kg i.p. twice per day 14 days, p<0.01",significant increase
same,VSMC proliferation,"[1]; insulin 10 or 100 nmol/L, 72 hours",induced a dose dependent increase in cell proliferation
